According to patent US8470334B2, “Method of inducing an antiviral immune response against HIV-1 utilizing chimeric HIV Env proteins comprising CD4 mini-proteins or CD4 mimetics” (Novartis Vaccines & Diagnostics, Inc, priority 2002, dated 2013):

Target: gp120 (Human immunodeficiency virus type 1 group M subtype B, UniProt P04578)
Test: competitive ELISA of gp120 binding
Set-up: species or system HIV-1
Details: as compared to previous double mutant (CD4M8)
Description: In a second step, each putatively active side chain of the miniprotein was replaced by an Ala residue (“Ala scanning”).

CC(C)C[C@@H]1NC(=O)CNC(=O)[C@H](CC(C)C)NC(=O)[C@H](CO)NC(=O)[C@H](CCCCN)NC(=O)[C@@H]2CSSC[C@@H](C(=O)NCC(=O)N3CCC[C@H]3C(=O)O)NC(=O)[C@H](C)NC(=O)[C@@H]3CSSC[C@H](NC(=O)[C@H](CCCNC(=N)N)NC(=O)[C@H](C)NC(=O)[C@H](CC(C)C)NC(=O)[C@H](CC(N)=O)NC(=O)[C@@H](N)CSSC[C@H](NC(=O)[C@H](CCCCN)NC(=O)CNC(=O)[C@H](CC(C)C)NC1=O)C(=O)N[C@@H](C)C(=O)NCC(=O)N[C@@H](CO)C(=O)N[C@@H](Cc1ccccc1)C(=O)N3)C(=O)N[C@@H](CCC(N)=O)C(=O)N[C@@H](CC(C)C)C(=O)N[C@@H](CCCNC(=N)N)C(=O)N2 [CD4M9]
further increase of binding affinity: ten-fold
